US20230280220A1, “Benzimidazole Derivative Compounds and Uses Thereof” (Pfizer Inc., priority 2019, published 2023)
pIC50: −log10 of the molar value.

Target: ITK enzyme (ITK FL, N-Flag and C-His tagged) (Homo sapiens (Human), UniProt Q08881)
Assay: ITK enzyme assay (IL-2-inducible T-cell kinase activity)
Assay type: biochemical
Settings: geometric mean of count n
Procedure: IL-2-Inducible T-Cell Kinase (ITK) Activity, IC50 (nM)
ITK activity was determined by measuring the effect of a test compound in an ITK enzyme assay.
1.0 M HEPES Buffer pH 7.5 solution was prepared as follows: 238.3 g HEPES free acid (Sigma) and 800 mL of water were combined, and the mixture was stirred until complete dissolution. The pH was adjusted to 7.5 via titration with 5N NaOH and the volume adjusted to 1000 mL. The solution was filtered and sterilized.
ITK assay buffer was prepared as follows: 50 mL of HPLC-grade water was treated with 2 mL of 1.0 M HEPES Buffer, 500 μL of 2% Gelatin (Sigma), 1.0 mL of aqueous MgCl2 solution (1.0 M), and 1.0 mL of aqueous glutathione solution (0.5 M), and the solution was mixed. The solution was brought to 99 mL in a graduated cylinder by addition of water and sterilized through a 0.2 μm filter. 0.1 mL of Brij-35™ Surfact-Amps™ Detergent Solution (10% w/v aqueous solution, ThermoFisher) and 1.0 mL of ATP (Teknova, 100 mM) were added and the solution was mixed.
The resulting solution was stored on ice. 30 Minutes prior to use, the enzyme solution was removed from ice and equilibrated to RT by incubation in a RT water bath.
Preparation of 4×ITK substrate solution was as follows: 50 mL of ITK assay buffer was treated with 100 μL of BTK peptide (China Peptide Company, 2 mM stock solution in DMSO). The tube was capped, mixed by gently inverting the tube, and then stored on ice. 30 Minutes prior to use, the substrate solution was removed from ice and equilibrated to RT by incubation in a RT water bath.
At the time of assay, 7.5 μL of the 1.33×ITK enzyme solution was added to plate wells containing 0.1 μL of varying concentrations of test compound in DMSO. The plate was incubated 30 min at RT. The plate wells were each treated with 2.5 uL of the 4×ITK substrate solution and the plate was sealed (TopSeal™, Perkin Elmer). The plate was spun at 1000 rpm for 30 sec and then incubated for 60 min at RT. The seal was removed, and each well was treated with 10 μL of Stop/Detect Buffer (20 mM HEPES pH 7.5, 0.01% gelatin, 1 nM LANCE PT66 (Perkin Elmer), 16.5 μg/ml Surelight APC (Perkin Elmer), 10 mM EDTA, 250 mM NaCl). The plate was again covered and was spun at 1000 rpm for 30 seconds. The plate was allowed to incubate overnight at RT and in a closed carrier to reduce dehydration. The seal was removed, and the fluorescence was read with a plate reader with an excitation wavelength of […] and an emission wavelength of 615 nm.

Chain of ITK enzyme (ITK FL, N-Flag and C-His tagged) (Q08881 whole entry): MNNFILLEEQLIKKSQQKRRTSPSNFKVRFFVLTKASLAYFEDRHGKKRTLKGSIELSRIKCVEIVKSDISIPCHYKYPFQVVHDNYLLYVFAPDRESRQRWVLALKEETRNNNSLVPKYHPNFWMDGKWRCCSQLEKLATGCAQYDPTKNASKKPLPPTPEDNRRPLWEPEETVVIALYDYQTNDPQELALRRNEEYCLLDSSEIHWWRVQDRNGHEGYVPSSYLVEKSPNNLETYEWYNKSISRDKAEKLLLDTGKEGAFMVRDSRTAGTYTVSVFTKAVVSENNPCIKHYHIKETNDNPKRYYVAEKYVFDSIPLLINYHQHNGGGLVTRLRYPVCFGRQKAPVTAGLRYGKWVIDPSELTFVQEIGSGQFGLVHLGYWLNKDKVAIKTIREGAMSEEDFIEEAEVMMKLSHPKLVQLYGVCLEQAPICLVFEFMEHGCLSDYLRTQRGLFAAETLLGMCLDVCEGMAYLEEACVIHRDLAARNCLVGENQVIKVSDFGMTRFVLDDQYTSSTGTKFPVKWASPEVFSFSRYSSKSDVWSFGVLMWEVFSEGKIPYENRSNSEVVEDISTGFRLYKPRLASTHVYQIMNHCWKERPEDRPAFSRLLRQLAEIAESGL

## Cc1cc2[nH]c(-c3n[nH]c4c3C[C@@H]3C[C@]3(C)C4)nc2cc1N(C)C(=O)CC1CCOCC1 [Example 35, N-Methyl-N-(6-methyl-2-((4aS,5aR)-5a-methyl-1,4,4a,5,5a,6-hexahydrocyclopropa[f]indazol-3-yl)-1H-benzo[d]imidazol-5-yl)-2-(tetrahydro-2H-pyran-4-yl)acetamide]
  pIC50: 8.22
